This is an account of results in patent US6214836A, “Water soluble analogues of 20(S)-camptothecin” (Dr. Reddy's Research Foundation, priority 1996, dated 2001).

Data set [1] concerns Human Serum Albumin (HSA). The settings on record: in the presence of HSA at 37° C.; vs 20(S) camptothecin and 9-aminocamptothecin; cited from earlier work.
For data set [2], the system named is NCI's 60 human tumor cell line. Put plainly: NCI 60 human tumor cell line assay (mean, Table 1). Particulars: read-out: IC 50 (mean value of the minimum drug concentration required to produce 50% cell growth inhibition (GI50)). The class given is cell-based. On the procedure: (§1) Inoculates were allowed a preincubation period of 24 h at 37° C. for stabilization. […] Readings are transferred to a microcomputer and fmal reports are generated using especially developed software.
^a IC 50 = the mean value of the minimum drug concentration (μm) of
NCI's 60 human tumor cell line assay.

The next data set concerns topoisomerase I. The settings on record: cited from earlier work.
The next data set relates to humans. The settings on record: cited from earlier work.
Another data set concerns SNB-19. The data set can be described thus: 50% growth inhibition, CNS panel. The class given is cell-based. The settings on record: Homo sapiens, read-out: 50% Growth Inhibition (GI 50); SNB-19, CNS; 48 h. The procedure:
as §1

For the next data set, the system named is SF-268. Put plainly: 50% growth inhibition, CNS panel. In kind it is cell-based. The settings on record: Homo sapiens, SF-268, 48 h, read-out: 50% Growth Inhibition (GI 50). On the procedure:
as §1

A further data set has as its system SF-539. Put plainly: 50% growth inhibition, CNS panel. In kind it is cell-based. Particulars: Homo sapiens, read-out: 50% Growth Inhibition (GI 50); SF-539, CNS; 48 h. On the procedure:
as §1

A further data set deals with MCF7/ADR. Put plainly: 50% growth inhibition, BREAST panel. In kind it is cell-based. Particulars: Homo sapiens, NCI/ADR-RES, read-out: 50% Growth Inhibition (GI 50), 48 h. The procedure:
as §1

In the next data set the test system is MCF-7. Put plainly: 50% growth inhibition, BREAST panel. In kind it is cell-based. Particulars: Homo sapiens, MCF7, read-out: 50% Growth Inhibition (GI 50); MCF-7, breast; 48 h. The procedure:
as §1

For another data set, the system named is T 47D. Put plainly: 50% growth inhibition, BREAST panel. The class given is cell-based. The settings on record: Homo sapiens, T47D, read-out: 50% Growth Inhibition (GI 50), 48 h. The procedure:
as §1

The test system of another data set is HOP 62. Put plainly: 50% growth inhibition, NSLC panel. In kind it is cell-based. The settings on record: Homo sapiens, read-out: 50% Growth Inhibition (GI 50); HOP 62, NSLC; 48 h. On the procedure: as §1
The subject of another data set is H 460. Put plainly: 50% growth inhibition, NSLC panel. The class given is cell-based. Particulars: Homo sapiens, NCI-H460, read-out: 50% Growth Inhibition (GI 50); H 460, NSLC; 48 h. On the procedure: as §1
A further data set deals with H 522. Put plainly: 50% growth inhibition, NSLC panel. The class given is cell-based. The settings on record: Homo sapiens, NCI-H522, read-out: 50% Growth Inhibition (GI 50); H 522, NSLC; 48 h. On the procedure: as §1
Another data set relates to 786-O. Put plainly: 50% growth inhibition, RENAL panel. The class given is cell-based. The settings on record: Homo sapiens, 786-0, read-out: 50% Growth Inhibition (GI 50), 48 h. On the procedure:
as §1

Another data set concerns ACHN. Put plainly: 50% growth inhibition, RENAL panel. In kind it is cell-based. The settings on record: Homo sapiens, read-out: 50% Growth Inhibition (GI 50), 48 h. The procedure: as §1
In another data set the test system is CAKI-1. The data set can be described thus: 50% growth inhibition, RENAL panel. In kind it is cell-based. The settings on record: Homo sapiens, read-out: 50% Growth Inhibition (GI 50); CAKI-1, renal; 48 h. On the procedure: as §1
Another data set deals with SW 620. Put plainly: 50% growth inhibition, COLON panel. The class given is cell-based. The settings on record: Homo sapiens, read-out: 50% Growth Inhibition (GI 50); SW 620, colon; 48 h. On the procedure: as §1
The subject of a further data set is HCT 116. Put plainly: 50% growth inhibition, COLON panel. The settings on record: Homo sapiens, read-out: 50% Growth Inhibition (GI 50); HCT 116, colon; 48 h. The class given is cell-based. The procedure:
as §1

Another data set concerns MOLT-4. Put plainly: 50% growth inhibition, […] panel. The settings on record: Homo sapiens, read-out: 50% Growth Inhibition (GI 50); MOLT-4, leukemia; 48 h. In kind it is cell-based. On the procedure: as §1
For another data set, the system named is SR. Put plainly: 50% growth inhibition, […] panel. The settings on record: Homo sapiens, read-out: 50% Growth Inhibition (GI 50), leukemia, 48 h. In kind it is cell-based. On the procedure:
as §1

The next data set has as its system CCRF-CEM. The data set can be described thus: 50% growth inhibition, […] panel. The class given is cell-based. Particulars: Homo sapiens, read-out: 50% Growth Inhibition (GI 50), leukemia, 48 h. On the procedure: as §1
The conditions of data set [3]: vs 20(RS)-camptothecin of the formula 7; cited from earlier work.
For the next data set, the system named is SF 295. Put plainly: 50% growth inhibition, CNS panel. In kind it is cell-based. The settings on record: Homo sapiens, read-out: 50% Growth Inhibition (GI 50); SF 295, CNS; 48 h. The procedure:
as §1

The test system of another data set is H 23. The data set can be described thus: 50% growth inhibition, NSLC panel. The settings on record: Homo sapiens, NCI-H23, read-out: 50% Growth Inhibition (GI 50); H 23, NSLC; 48 h. The class given is cell-based. On the procedure: as §1
A further data set has as its system HT 29. Put plainly: 50% growth inhibition, COLON panel. The class given is cell-based. The settings on record: Homo sapiens, read-out: 50% Growth Inhibition (GI 50); HT 29, colon; 48 h. The procedure: as §1
Another data set concerns HL 60. Put plainly: 50% growth inhibition, […] panel. The class given is cell-based. Particulars: Homo sapiens, read-out: 50% Growth Inhibition (GI 50); HL 60, leukemia; 48 h. The procedure: as §1
A further data set deals with LOX IMVI. Put plainly: 50% growth inhibition, MELANOMA panel. Particulars: Homo sapiens, read-out: 50% Growth Inhibition (GI 50), 48 h. In kind it is cell-based. On the procedure: as §1
For another data set, the system named is M 14. Put plainly: 50% growth inhibition, MELANOMA panel. Particulars: Homo sapiens, M14, read-out: 50% Growth Inhibition (GI 50); M 14, melanoma; 48 h. In kind it is cell-based. The procedure: as §1
Another data set has as its system UACC 62. Put plainly: 50% growth inhibition, MELANOMA panel. In kind it is cell-based. Particulars: Homo sapiens, read-out: 50% Growth Inhibition (GI 50); UACC 62, melanoma; 48 h. On the procedure: as §1

Like-named read-outs stand apart in the source and are kept apart here.

Regarding `CCc1c2c(nc3ccc(O)cc13)-c1cc3c(c(=O)n1C2)COC(=O)[C@]3(O)CC` [SN-38, 7-ethyl-10-hydroxycamptothecin], in data set [1], the “percentage (%) of lactone form at equilibrium (in words)” value (shortened to “percentage (%) of lactone form”) is “higher percentage (%) of lactone form at equilibrium”.

Regarding `CC[C@@]1(O)C(=O)OCc2c1cc1n(c2=O)C(CC(=O)OC)c2cc3c(OC)cccc3nc2-1` (stereo partly drawn) [Example 10, 9-methoxy-5-carbomethoxymethylcamptothecin], in data set [2] (mean over NCI's 60 human tumor cell lines, 48 h incubation), the IC50 came to 16200 nM.

Regarding `CC[C@@]1(O)C(=O)OCc2c1cc1n(c2=O)Cc2cc3c(CN(C)C)c(O)ccc3nc2-1` [Topotecan, topotecan], in data set [1], the “percentage (%) of lactone form” value is “higher percentage (%) of lactone form at equilibrium”.

With `C=C1C(=O)OCc2c1cc1n(c2=O)Cc2c-1nc1ccc(O)cc1c2CC` [formula 8], in the data set on topoisomerase I, the “topoisomerase I inhibition (in words)” value is reported as “potent camptothecin like inhibition of topoisomerase I activity”.

As to `CCc1c2c(nc3ccc(OC(=O)N4CCC(N5CCCCC5)CC4)cc13)-c1cc3c(c(=O)n1C2)COC(=O)[C@]3(O)CC` [CPT-11], the “percentage (%) of lactone form” value in data set [1] was “higher percentage (%) of lactone form at equilibrium”.

Take `CC[C@@]1(O)C(=O)OCc2c1cc1n(c2=O)Cc2cc3ccccc3nc2-1` [20(S)-Camptothecin]: the “topoisomerase I inhibition (in words)” value in the data set with topoisomerase I is recorded as “inhibitor of topoisomerise I”. The “toxicity (in words)” value in the data set with humans is on record as “high toxicity problems”. The “side effects on humans (in words)” value in the data set with humans (humans) is given as “unacceptable side effects on humans”.

For `CC[C@@]1(O)C(=O)OCc2c1cc1n(c2=O)C(CC(=O)OC)c2cc3cc(O)ccc3nc2-1` (stereo partly drawn) [Example 3, 10-hydroxy-5-carbomethoxymethylcamptothecin], in data set [2] (Homo sapiens, 48 h), the IC50 was determined as 4890 nM.

For `CC[C@@]1(O)C(=O)OCc2c1cc1n(c2=O)C(CC(C)=O)c2cc3ccccc3nc2-1` (stereo partly drawn) [Example 2, 5-(2'-oxopropyl)camptothecin], the GI50 in the data set with SNB-19 was 6450 nM; in the data set on SF-268, 4260 nM; in the data set with SF-539 it was 3890 nM; in the data set on MCF7/ADR it was 1860 nM; in the data set with MCF-7, 3630 nM; with T 47D it was 2630 nM. Besides, the GI50 in the data set with HOP 62 turned out to be 4460 nM; in the data set with H 460, 1120 nM; in the data set on H 522, 3980 nM; with 786-O, 2950 nM; in the data set with ACHN, 2880 nM; in the data set with CAKI-1, 2630 nM. In addition, the GI50 in the data set on SW 620 came out at 6020 nM; in the data set with HCT 116 it was 5620 nM; in the data set on MOLT-4, 770 nM; in the data set with SR it was 180 nM; in the data set on CCRF-CEM, 380 nM. Further, the IC50 in data set [2] (Homo sapiens, 48 h) amounted to 8310 nM.

For `CC[C@@]1(O)C(=O)OCc2c1cc1n(c2=O)C(CC(=O)OC)c2cc3ccccc3nc2-1` (stereo partly drawn) [Example 1, 5-Carbomethoxymethylcamptothecin], the IC50 in data set [2] (Homo sapiens, 48 h) was 16200 nM.

Regarding `CCc1c2c(nc3ccc(OC)cc13)-c1cc3c(c(=O)n1C2)COC(=O)[C@]3(N)CC` [formula 6], the “in vivo antitumor activity (in words)” value in data set [3] is on record as “increased in vivo antitumor activity than 20(RS)-camptothecin”.

For the molecule `CC[C@@]1(O)C(=O)OCc2c1cc1n(c2=O)C(CC(C)=O)c2cc3c([N+](=O)[O-])cccc3nc2-1` (stereo partly drawn) [Example 4, 9-nitro-5-(2'-oxopropyl)camptothecin], the GI50 in the data set with SF 295 stood at 190 nM; with SF-539, 260 nM; with HOP 62, 260 nM; with H 460, 100 nM; in the data set with H 23, 240 nM; in the data set with 786-O, 300 nM. Further, the GI50 in the data set on ACHN was determined as 210 nM; with CAKI-1 it was 210 nM; with HT 29, 1170 nM; with SW 620, 70 nM; in the data set with HCT 116, 570 nM; with HL 60, 230 nM. The GI50 with SR was 20 nM; in the data set on CCRF-CEM it was 90 nM; in the data set with LOX IMVI, 380 nM; in the data set on M 14, 300 nM; in the data set on UACC 62, 330 nM. The IC50 in [2] (Homo sapiens, 48 h) is 1000 nM.

Turning to `CC[C@@]1(O)C(=O)OCc2c1cc1n(c2=O)C(CC(=O)OC)c2cc3c([N+](=O)[O-])cccc3nc2-1` (stereo partly drawn) [Example 5, 9-Nitro-5-carbomethoxymethylcamptothecin], the IC50 in [2] (Homo sapiens, 48 h) stood at 15800 nM.
